Measured values published in the NIST ThermoML archive (doi:10.1016/j.fluid.2016.08.002).

Assay: xn = mol fraction of the nth substance listed
Settings: Gas, Vibrating tube method

S [hydrogen sulfide] + C
Settings | mass density [kg/m3]
253.4 K, 9215 kPa, x2 = 0.8685 | 128.92
253.4 K, 9484 kPa, x2 = 0.8685 | 135.48
253.41 K, 10167 kPa, x2 = 0.8685 | 150.17
253.42 K, 10405 kPa, x2 = 0.8685 | 155.11
253.42 K, 10879 kPa, x2 = 0.8685 | 164.94
253.42 K, 11161 kPa, x2 = 0.8685 | 170.62
253.43 K, 9711 kPa, x2 = 0.8685 | 140.67
253.43 K, 9944 kPa, x2 = 0.8685 | 145.46
253.44 K, 10674 kPa, x2 = 0.8685 | 160.71
253.45 K, 11408 kPa, x2 = 0.8685 | 175.6
253.45 K, 12503 kPa, x2 = 0.8685 | 195.9
253.46 K, 11691 kPa, x2 = 0.8685 | 181.06
253.46 K, 11951 kPa, x2 = 0.8685 | 186.09
253.46 K, 12221 kPa, x2 = 0.8685 | 190.99
253.46 K, 12710 kPa, x2 = 0.8685 | 199.55
253.47 K, 13026 kPa, x2 = 0.8685 | 204.72
253.48 K, 13361 kPa, x2 = 0.8685 | 209.99
253.49 K, 13557 kPa, x2 = 0.8685 | 213.18
253.5 K, 13904 kPa, x2 = 0.8685 | 217.77
253.53 K, 14217 kPa, x2 = 0.8685 | 222.31
253.53 K, 14605 kPa, x2 = 0.8685 | 227.86
253.53 K, 27036 kPa, x2 = 0.8685 | 316.4
253.54 K, 15328 kPa, x2 = 0.8685 | 236.23
253.56 K, 16209 kPa, x2 = 0.8685 | 246.09
253.56 K, 23487 kPa, x2 = 0.8685 | 300.68
253.57 K, 26154 kPa, x2 = 0.8685 | 313.25
253.58 K, 16612 kPa, x2 = 0.8685 | 250.04
253.59 K, 17129 kPa, x2 = 0.8685 | 255.23
253.6 K, 17589 kPa, x2 = 0.8685 | 259.35
253.61 K, 18036 kPa, x2 = 0.8685 | 263.28
253.61 K, 18480 kPa, x2 = 0.8685 | 267.15
253.62 K, 18822 kPa, x2 = 0.8685 | 269.8
253.63 K, 19390 kPa, x2 = 0.8685 | 274.47
253.64 K, 19853 kPa, x2 = 0.8685 | 277.53
253.66 K, 21081 kPa, x2 = 0.8685 | 286.3
253.66 K, 21605 kPa, x2 = 0.8685 | 289.87
253.67 K, 22087 kPa, x2 = 0.8685 | 292.82
253.68 K, 22512 kPa, x2 = 0.8685 | 295.31
253.68 K, 22918 kPa, x2 = 0.8685 | 297.52
253.72 K, 26573 kPa, x2 = 0.8685 | 314.9
272.97 K, 448 kPa, x2 = 0.714 | 4.32
272.98 K, 925 kPa, x2 = 0.714 | 9.1
272.98 K, 1959 kPa, x2 = 0.714 | 21.08
272.99 K, 1499 kPa, x2 = 0.714 | 15.62
272.99 K, 2470 kPa, x2 = 0.714 | 27.39
272.99 K, 15974 kPa, x2 = 0.714 | 304.94
272.99 K, 16531 kPa, x2 = 0.714 | 310.78
273 K, 5009 kPa, x2 = 0.714 | 66.37
273 K, 13055 kPa, x2 = 0.714 | 265.48
273 K, 13551 kPa, x2 = 0.714 | 273.7
273 K, 14019 kPa, x2 = 0.714 | 280.64
273 K, 14532 kPa, x2 = 0.714 | 287.5
273 K, 15457 kPa, x2 = 0.714 | 298.99
273.01 K, 12511 kPa, x2 = 0.714 | 252.68
273.01 K, 14977 kPa, x2 = 0.714 | 293.17
273.02 K, 4006 kPa, x2 = 0.714 | 49.21
273.02 K, 4495 kPa, x2 = 0.714 | 57.7
273.02 K, 5020 kPa, x2 = 0.8197 | 51.69
273.03 K, 5418 kPa, x2 = 0.714 | 73.5
273.03 K, 16977 kPa, x2 = 0.714 | 315.19
273.03 K, 29571 kPa, x2 = 0.714 | 387.72
273.03 K, 30070 kPa, x2 = 0.714 | 389.49
273.04 K, 220 kPa, x2 = 0.8197 | 1.87
273.04 K, 5526 kPa, x2 = 0.8197 | 58.55
273.05 K, 512 kPa, x2 = 0.8197 | 4.39
273.05 K, 6060 kPa, x2 = 0.8197 | 66.2
273.05 K, 6535 kPa, x2 = 0.8197 | 73.36
273.05 K, 19490 kPa, x2 = 0.8197 | 268.43
273.05 K, 20545 kPa, x2 = 0.8197 | 276.64
273.05 K, 27474 kPa, x2 = 0.714 | 379.67
273.05 K, 29015 kPa, x2 = 0.714 | 385.58
273.06 K, 1024 kPa, x2 = 0.8197 | 8.86
273.06 K, 1546 kPa, x2 = 0.8197 | 13.54
273.06 K, 1998 kPa, x2 = 0.8197 | 17.83
273.06 K, 3515 kPa, x2 = 0.714 | 41.26
273.06 K, 4568 kPa, x2 = 0.8197 | 45.89
273.06 K, 7007 kPa, x2 = 0.8197 | 80.78
273.06 K, 7503 kPa, x2 = 0.8197 | 88.86
273.06 K, 19898 kPa, x2 = 0.8197 | 271.74
273.06 K, 27956 kPa, x2 = 0.714 | 381.54
273.07 K, 2472 kPa, x2 = 0.8197 | 22.64
273.07 K, 2991 kPa, x2 = 0.714 | 34.29
273.07 K, 4037 kPa, x2 = 0.8197 | 39.48
273.07 K, 19004 kPa, x2 = 0.8197 | 264.22
273.07 K, 21088 kPa, x2 = 0.8197 | 280.47
273.07 K, 22026 kPa, x2 = 0.8197 | 286.58
273.08 K, 3006 kPa, x2 = 0.8197 | 28.12
273.08 K, 3496 kPa, x2 = 0.8197 | 33.34
273.08 K, 8037 kPa, x2 = 0.8197 | 97.86
273.08 K, 17450 kPa, x2 = 0.714 | 319.61
273.08 K, 17522 kPa, x2 = 0.8197 | 249.57
273.08 K, 18504 kPa, x2 = 0.8197 | 259.61
273.08 K, 21490 kPa, x2 = 0.8197 | 283.16
273.09 K, 8509 kPa, x2 = 0.8197 | 106.04
273.09 K, 8697 kPa, x2 = 0.8197 | 109.34
273.09 K, 18521 kPa, x2 = 0.714 | 328.7
273.1 K, 18017 kPa, x2 = 0.8197 | 254.8
273.1 K, 18931 kPa, x2 = 0.714 | 331.97
273.1 K, 22561 kPa, x2 = 0.8197 | 289.86
273.1 K, 28471 kPa, x2 = 0.714 | 383.53
273.11 K, 9417 kPa, x2 = 0.8197 | 122.17
273.11 K, 10159 kPa, x2 = 0.8197 | 135.6
273.11 K, 14299 kPa, x2 = 0.8197 | 207.01
273.11 K, 17004 kPa, x2 = 0.8197 | 243.74
273.11 K, 17956 kPa, x2 = 0.714 | 324.07
273.11 K, 23102 kPa, x2 = 0.8197 | 293.06
273.12 K, 23507 kPa, x2 = 0.8197 | 295.4
273.13 K, 10896 kPa, x2 = 0.8197 | 148.97
273.13 K, 11490 kPa, x2 = 0.8197 | 159.68
273.13 K, 12024 kPa, x2 = 0.8197 | 169.16
273.13 K, 13513 kPa, x2 = 0.8197 | 194.52
273.13 K, 14007 kPa, x2 = 0.8197 | 202.45
273.13 K, 14904 kPa, x2 = 0.8197 | 216.11
273.13 K, 15510 kPa, x2 = 0.8197 | 224.73
273.13 K, 16041 kPa, x2 = 0.8197 | 231.85
273.13 K, 16504 kPa, x2 = 0.8197 | 237.74
273.13 K, 24081 kPa, x2 = 0.8197 | 298.69
273.13 K, 27492 kPa, x2 = 0.8197 | 316.71
273.13 K, 28026 kPa, x2 = 0.8197 | 319.37
273.13 K, 28568 kPa, x2 = 0.8197 | 321.92
273.13 K, 29088 kPa, x2 = 0.8197 | 324.13
273.13 K, 29546 kPa, x2 = 0.8197 | 325.75
273.13 K, 29999 kPa, x2 = 0.8197 | 327.01
273.14 K, 10580 kPa, x2 = 0.8197 | 143.25
273.14 K, 21825 kPa, x2 = 0.714 | 351.99
273.14 K, 24511 kPa, x2 = 0.8197 | 301.13
273.14 K, 26076 kPa, x2 = 0.8197 | 309.49
273.14 K, 26577 kPa, x2 = 0.8197 | 312.08
273.14 K, 26982 kPa, x2 = 0.8197 | 314.11
273.15 K, 25182 kPa, x2 = 0.8197 | 304.96
273.15 K, 25661 kPa, x2 = 0.8197 | 307.41
273.16 K, 13305 kPa, x2 = 0.8197 | 191.11
